From patent US10617662B2, “Autophagy activation-induced compound for improving skin inflammation for aging” (INCOSPHARM CORPORATION, priority 2017, dated 2020)

System: IL-1β (interleukin-1beta)
Experiment: ELISA for IL-1β in LPS-treated HEKa cells
Type: cell-based, human
Conditions: LPS-induced inflammatory condition, 10·M, FIG. 10
Procedure: ELISA (enzyme-linked immunosorbent assay) for IL-1β (interleukin-1beta) which is very closely related to atopic inflammation and psoriasis was performed.
As a specific experimental method, HEKa cells (Human Epidermal keratinocytes, adult), human-derived epidermal keratinocytes were seeded on a 24 well plate at a density of 1×10^5 cells, and cultured in an EpiLife medium (1× Human keratinocyte Growth supplement, 1× antibiotics) in an incubator under 37° C. and 5% CO2 for 24 hours.
After culturing, while an inflammatory condition was induced by treatment with LPS (lipopolysaccharides) in each well, further treatment was performed with Compound 8 of the present invention and the compound of the following Comparative Example at a concentration of 10·M, and then the cells were incubated for a certain period. After completing culturing, media were collected, and then ELISA for IL-1β was carried out, and the results are shown in FIG. 10.

SMILES: O=C(O)CN(CCCCNC(CCCCN(CC(=O)O)CC(=O)O)C(=O)O)CC(=O)O (stereo not shown) [compound of the Comparative Example, reference compound]
- cytokine IL-1β secretion level: negligible
